Assay [1] concerns the target HCV NS3/4A protease genotype 1b (Hepatitis C virus genotype 1b, UniProt P26663). Put plainly: HCV NS3/4A protease time-resolved fluorescence (TRF) assay, Ki against genotype 1b. It is filed as biochemical. Summed up:
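Ki was converted from fitted IC50 using IC50=Ki(1+[S]/KM) and 25 nM substrate. Protease (genotype 1b 0.2 nM, A156T 0.4 nM, 3a 0.025 nM) and compound were pre-mixed 30 min in pH 7.5 HEPES/NaCl/glycerol/DTT buffer. Cleavage then proceeded 2.5 h at room temperature, detected by time-resolved europium fluorescence (340/615 nm).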

The target in assay [2] is HCV NS3/4A protease genotype 3a (Hepatitis C virus genotype 3a, UniProt Q81495). Briefly: HCV NS3/4A protease time-resolved fluorescence (TRF) assay, Ki against genotype 3a. It is filed as biochemical. The procedure: (§1) Measuring NS3/4A Inhibitory Activity (Ki) Against Genotype 1b, Against A156T Mutants and Against Genotype 3a
(§2) One assay for measuring inhibitory activity is HCV NS3 protease time-resolved fluorescence (TRF) assay as described below and in Mao et al., Anal. Biochem. 373:1-8, 2008 and International Patent Application Publication WO 2006/102087. A NS3 protease assay can be performed, for example, in a final volume of 20 μl assay buffer containing 50 mM HEPES, pH 7.5, 150 mM NaCl, 15% glycerol, 0.15% TRITON X-100, 10 mM DTT, and 0.1% PEG 8000. NS3 and NS4A protease is pre-incubated with various concentrations of inhibitors in DMSO for 30 min. The reaction is initiated by adding the TRF peptide substrate (final concentration 25 nM). NS3 mediated hydrolysis of the substrate was run for 2.5 hours at room temperature. Product fluorescence is detected using A Pherastar Plus plate reader (BMG) or Envision (Perkin Elmer Life and Analytical Sciences with excitation at 340 nm and emission at 615 nm using the appropriate delay time optimized for the europium fluorescence probe. Testing concentrations of different enzyme forms are selected to result in a signal to background ratio (S/B) of 10-30. IC50 values are derived using a standard four-parameter fit to the data. Ki values are derived from IC50 values using the following formula, IC50=Ki(1+[S]/KM), Eqn (1), where [S] is the concentration of substrate peptide in the reaction and KM is the Michaelis constant. See P. Gallinari et al., 38 BIOCHEM. 5620-32 (1999); P. Gallinari et al., 72 J. VIROL. 6758-69 (1998); M. Taliani et al., 240 ANAL. BIOCHEM. 60-67 (1996); Mao et al., Analytical Biochemistry 373: 1-8, 2008.
(§3) The assay described above was run against genotype 1b at a concentration of 0.2 nM, against A156T mutant strains at a concentration of 0.4 nM, and against genotype 3a at a concentration of 0.025 nM.

Assay [3] concerns the target HCV NS3/4A protease A156T mutant (Hepatitis C virus genotype 1b, UniProt P26663, A1182T). Briefly: HCV NS3/4A protease time-resolved fluorescence (TRF) assay, Ki against A156T mutant. The following applies: read-out: IC50 [gt-1b A156T]. Format: biochemical. The procedure: as §1, §2, §3
The next assay concerns HCV genotype 1b replicon. Put plainly: HCV replicon assay, genotype 1b replicon EC50. Format: cell-based, Hepatitis C virus. As to conditions: Hepatitis C virus, read-out: EC50 [gt-1b]. In short, it runs like this:
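Stable neomycin-selected genotype 1b replicon cells, some carrying luciferase:Neo^r fusion, plated without G418 with a compound dilution series and incubated 24-48 h. Read-out was RNA (^32P-probe protection or TaqMan, normalized to cyclophilin A) or luciferase activity. EC50 from four-parameter fit as percent of DMSO control.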
On the technique in general: In antiviral work, replicon cells carry a viral genome segment that copies itself.

[4] abbreviates: IC50 [gt-1b] (nM), NS3/4A genotype 1b, enzyme 0.2 nM, K+ salt.
[5] abbreviates: NS3/4A gt-1b A156T mutant, enzyme 0.4 nM, K+ salt.
[6] abbreviates: IC50 [gt-1b] (nM), NS3/4A genotype 1b, enzyme 0.2 nM.
The mark [7] stands for this setting: NS3/4A gt-1b A156T mutant, enzyme 0.4 nM.
[8] abbreviates: IC50 [gt-1b], NS3/4A protease TRF assay, genotype 1b enzyme 0.2 nM.
[9] abbreviates: NS3/4A protease TRF assay, A156T mutant enzyme 0.4 nM.

This note sets out measurements from patent US8987195B2 (priority 2012, dated 2015).

Like-named read-outs stand apart in the source and are kept apart here.

In general, IC50 refers to the concentration that inhibits the measured activity by half. Broadly, the EC50 is the concentration giving half of the maximal effect. In the case of `Cc1nc2ccc(Cl)cc2c2c1O[C@]1(CC2)C[C@H]2C(=O)N[C@]3(C(=O)NS(=O)(=O)C4(C)CC4)C[C@H]3/C=C\CCCCC[C@H](NC(=O)OCC(C)C)C(=O)N2C1` [Example 189, 2-methylpropyl [(2R,6S,12Z,13aS,14aR,16aS)-9′-chloro-5′-methyl-14a-{[(1-methylcyclopropyl)sulfonyl]carbamoyl}-5,16-dioxo-1,1′,2′,5,6,7,8,9,10,11,13a,14,14a,15,16,16a-hexadecahydrospiro[cyclopropa[e]pyrrolo[1,2-a][1,4]diazacyclopentadecine-2,3′-pyrano[2,3-c]quinolin]-6-yl]carbamate], the half-inhibitory concentration (IC50) is 0.002 nM in assay [1] (setting [4]), 0.394 nM in assay [2] and 0.062 nM in assay [3] (setting [5]). Moreover, the EC50 in the assay with HCV genotype 1b replicon (genotype 1b replicon, K+ salt) is 6.42 nM.

As to `Cc1nc2cc(F)c(F)cc2c2c1O[C@]1(CC2)C[C@H]2C(=O)N[C@]3(C(=O)NS(=O)(=O)C4(C)CC4)C[C@H]3/C=C\CCCCC[C@H](NC(=O)OC(C)C)C(=O)N2C1` [Example 194, propan-2-yl [(2R,6S,12Z,13aS,14aR,16aS)-8′,9′-difluoro-5′-methyl-14a-{[(1-methylcyclopropyl)sulfonyl]carbamoyl}-5,16-dioxo-1,1′,2′,5,6,7,8,9,10,11,13a,14,14a,15,16,16a-hexadecahydrospiro[cyclopropa[e]pyrrolo[1,2-a][1,4]diazacyclopentadecine-2,3′-pyrano[2,3-c]quinolin]-6-yl]carbamate], the IC50 is 0.007 nM in assay [1] (setting [4]), 0.994 nM in assay [2] and 0.0541 nM in assay [3] (setting [5]). Besides, the 50% effective concentration (EC50) in the assay on HCV genotype 1b replicon (genotype 1b replicon, K+ salt) is 8.28 nM.

Regarding `Cc1nc2cc(F)c(F)cc2c2c1O[C@]1(CC2)C[C@H]2C(=O)N[C@]3(C(=O)NS(=O)(=O)C4(C)CC4)C[C@H]3/C=C\CCCCC[C@H](NC(=O)OC3(C)CC3)C(=O)N2C1` [Example 195, 1-methylcyclopropyl [(2R,6S,12Z,13aS,14aR,16aS)-8′,9′-difluoro-5′-methyl-14a-{[(1-methylcyclopropyl)sulfonyl]carbamoyl}-5,16-dioxo-1,1′,2′,5,6,7,8,9,10,11,13a,14,14a,15,16,16a-hexadecahydrospiro[cyclopropa[e]pyrrolo[1,2-a][1,4]diazacyclopentadecine-2,3′-pyrano[2,3-c]quinolin]-6-yl]carbamate], the IC50 in assay [1] (setting [4]) was found to be 0.01 nM; in assay [2] it was 1.73 nM; in assay [3] (setting [5]) it was 0.134 nM. Further, in the assay with HCV genotype 1b replicon (genotype 1b replicon, K+ salt), the 50% effective concentration (EC50) came to 8.67 nM.

As for `COc1ccc2nc(C)c3c(c2c1)CC[C@]1(C[C@H]2C(=O)N[C@]4(C(=O)NS(=O)(=O)C5(C)CC5)C[C@H]4/C=C\CCCCC[C@H](NC(=O)OC4(C)COC4)C(=O)N2C1)O3` [Example 198, 3-methyloxetan-3-yl [(2R,6S,12Z,13aS,14aR,16aS)-9′-methoxy-5′-methyl-14a-{[(1-methylcyclopropyl)sulfonyl]carbamoyl}-5,16-dioxo-1,1′,2′,5,6,7,8,9,10,11,13a,14,14a,15,16,16a-hexadecahydrospiro[cyclopropa[e]pyrrolo[1,2-a][1,4]diazacyclopentadecine-2,3′-pyrano[2,3-c]quinolin]-6-yl]carbamate], the IC50 in assay [1] (setting [6]) came out at 0.006 nM; in assay [2] it was 0.561 nM; in assay [3] (setting [7]) it was 0.104 nM. Also, the EC50 in the assay with HCV genotype 1b replicon (genotype 1b replicon) is 9.19 nM.

With `COc1ccc2nc(C)c3c(c2c1)CC[C@]1(C[C@H]2C(=O)N[C@]4(C(=O)NS(=O)(=O)C5(C)CC5)C[C@H]4/C=C\CCCCC[C@H](NC(=O)OC4CCC4)C(=O)N2C1)O3` [Example 199, cyclobutyl [(2R,6S,12Z,13aS,14aR,16aS)-9′-methoxy-5′-methyl-14a-{[(1-methylcyclopropyl)sulfonyl]carbamoyl}-5,16-dioxo-1,1′,2′,5,6,7,8,9,10,11,13a,14,14a,15,16,16a-hexadecahydrospiro[cyclopropa[e]pyrrolo[1,2-a][1,4]diazacyclopentadecine-2,3′-pyrano[2,3-c]quinolin]-6-yl]carbamate], the concentration for half-maximal inhibition (IC50) was 0.003 nM in assay [1] (setting [4]), 0.287 nM in assay [2] and 0.0462 nM in assay [3] (setting [5]). For the same compound, the EC50 in the assay on HCV genotype 1b replicon (genotype 1b replicon, K+ salt) is 1 nM.

As to `Cc1nc2ccc(C(F)(F)F)cc2c2c1O[C@]1(CC2)C[C@H]2C(=O)N[C@]3(C(=O)NS(=O)(=O)C4(C)CC4)C[C@H]3/C=C\CCCCC[C@H](NC(=O)OCC(C)(C)C)C(=O)N2C1` [Example 255, 2,2-dimethylpropyl [(2R,6S,12Z,13aS,14aR,16aS)-5′-methyl-14a-{[(1-methylcyclopropyl)sulfonyl]carbamoyl}-5,16-dioxo-9′-(trifluoromethyl)-1,1′,2′,5,6,7,8,9,10,11,13a,14,14a,15,16,16a-hexadecahydrospiro[cyclopropa[e]pyrrolo[1,2-a][1,4]diazacyclopentadecine-2,3′-pyrano[2,3-c]quinolin]-6-yl]carbamate], the IC50 in assay [1] (setting [6]) worked out at 0.015 nM; in assay [2] it was 2.86 nM; in assay [3] (setting [7]) it was 0.679 nM. Moreover, in the assay with HCV genotype 1b replicon (genotype 1b replicon), the EC50 is 50.9 nM.

Regarding `COc1ccc2nc(C)c3c(c2c1)C(F)(F)C[C@]1(C[C@H]2C(=O)N[C@]4(C(=O)NS(=O)(=O)C5(C)CC5)C[C@H]4/C=C\CCCCC[C@H](NC(=O)OCC(C)C)C(=O)N2C1)O3` [Example 266, 2-methylpropyl [(2S,6S,12Z,13aS,14aR,16aS)-1′,1′-difluoro-9′-methoxy-5′-methyl-14a-{[(1-methylcyclopropyl)sulfonyl]carbamoyl}-5,16-dioxo-1,1′,2′,5,6,7,8,9,10,11,13a,14,14a,15,16,16a-hexadecahydrospiro[cyclopropa[e]pyrrolo[1,2-a][1,4]diazacyclopentadecine-2,3′-pyrano[2,3-c]quinolin]-6-yl]carbamate], the 50% inhibitory concentration (IC50) turned out to be 0.014 nM in assay [1] (setting [4]), 2.1 nM in assay [2] and 0.384 nM in assay [3] (setting [5]). Moreover, the EC50 in the assay on HCV genotype 1b replicon (genotype 1b replicon, K+ salt) is 4.47 nM.

For the compound `COc1ccc2nc(C)c3c(c2n1)CC[C@]1(C[C@H]2C(=O)N[C@]4(C(=O)NS(=O)(=O)C5(C)CC5)C[C@H]4/C=C\CCCCC[C@H](NC(=O)OCC(C)(C)C)C(=O)N2C1)O3` [Example 361, 2,2-dimethylpropyl [(2R,6S,12Z,13aS,14aR,16aS)-2′-methoxy-6′-methyl-14a-{[(1-methylcyclopropyl)sulfonyl]carbamoyl}-5,16-dioxo-1,5,6,7,8,9,9′,10,10′,11,13a,14,14a,15,16,16a-hexadecahydrospiro[cyclopropa[e]pyrrolo[1,2-a][1,4]diazacyclopentadecine-2,8′-pyrano[2,3-c][1,5]naphthyridin]-6-yl]carbamate], the IC50 in assay [1] (setting [8]) stood at 0.012 nM; in assay [2], 0.433 nM; in assay [3] (setting [9]) it was 0.241 nM. Further, the EC50 with HCV genotype 1b replicon (HCV replicon, genotype 1b) is 4.43 nM.

Consider `CC(C)(C)COC(=O)N[C@H]1CCCCC/C=C\[C@@H]2C[C@@]2(C(=O)NS(=O)(=O)C2(C)CC2)NC(=O)[C@@H]2C[C@]3(CCc4c(c(C(F)F)nc5ccc(Cl)cc45)O3)CN2C1=O` [Example 369, 2,2-dimethylpropyl [(2R,6S,12Z,13aS,14aR,16aS)-9′-chloro-5′-(difluoromethyl)-14a-{[(1-methylcyclopropyl)sulfonyl]carbamoyl}-5,16-dioxo-1,1′,2′,5,6,7,8,9,10,11,13a,14,14a,15,16,16a-hexadecahydrospiro[cyclopropa[e]pyrrolo[1,2-a][1,4]diazacyclopentadecine-2,3′-pyrano[2,3-c]quinolin]-6-yl]carbamate], for which the IC50 is 0.018 nM in assay [1] (setting [8]), 1.18 nM in assay [2] and 1.16 nM in assay [3] (setting [9]). Also, in the assay on HCV genotype 1b replicon (HCV replicon, genotype 1b), the concentration for a half-maximal effect (EC50) came out at 15.1 nM.
